In publication PMC8157322, “Gd(III)–Pt(IV) theranostic contrast agents for tandem MR imaging and chemotherapy” (Chemical Science, 2020):
Blank lines part the entries; values can stand above or below the molecule they belong to.

Key:
[1] = test system: HeLa cells; assay: MR imaging of cell pellets at 7 T; type: cell-based; details: 6 h incubation, cisplatin 15 μM, 1 100 μM, GP1 60 μM, GP2 250 μM
[2] = Relaxivity after incubation in 5 mM GSH in PBS; type: physicochemical; details: 1.41 T, PBS with 5 mM glutathione, 37 °C
Description: This is possibly due to an increase in the rotational correlation time (τR) or a change in the inner sphere hydration number (q) of Gd(III). The differences in relaxivity of GP1 and GP2 compared to 1 offers the possibility of monitoring reduction of the agents by MR at both high and low field strength. To test this, GP1, GP2, and 1 were incubated in 5 mM GSH in PBS and the relaxivity was measured (see ESI ^†). The relaxivity of each converged to the same value (r1 of 4.4, 4.5, and 4.6 mM^−1 s^−1 for 1, GP1, and GP2 respectively), indicating the same Gd(III) species was formed after reduction. The significant change in r1 upon reduction of GP1 and GP2 theoretically could be used to monitor intracellular reduction by MR. However, further testing needs to be done to determine if these agents are suitable for this application.
(§1) Fig. S2 Graph of r1 of (A) GP1 measured at 1.41 T (B) GP1 measured at 7 T (C) GP2 measured at 1.41 T
(D) GP2 measured at 7 T (E) 1 measured at 1.41 T (F) 1 measured at 7 T. All measurements were taken
in PBS at 37 °C (G) 1 measured at 1.41 T with 5 mM GSH (H) GP1 measured at 1.41 T with 5 mM GSH
and (I) GP2 measured at 1.41 T with 5 mM GSH.
(§2) Table S1. r1 of GP1, GP2, and 1 in PBS with 5 mM glutathione at 37 °C
(§3) GP1 (5 mM GSH) GP2 (5 mM GSH) 1 (5 mM GSH)

[3] = test system: A2780 cells; assay: MR imaging of cell pellets at 7 T; type: cell-based; details: A2780, 7 T, 6 h incubation; cisplatin 7.5 μM, 1 100 μM, GP1 30 μM, GP2 60 μM
[4] = T1/T2 relaxivity measurements in PBS; type: physicochemical; details: 37 °C
Description: The T1 relaxivity (r1) and T2 relaxivity (r2) of 1, GP1, and GP2 were measured at both low (1.41 T) and high (7 T) magnetic field strength in phosphate-buffered saline (PBS) to quantify how well they behave as MR contrast agents. […] The relaxivity values for 1 are well within the range of what is expected for a small molecule Gd(III) complex.[34] […] At 7 T, there was little change in r1 for both agents, while both r2 values increased, as expected. […]
solution. These capillaries were imaged using a Bruker PharmaScan 7 T MR imaging spectrometer (Bruker BioSpin, Billerica, MA, USA). T1 relaxation times were measured using a rapid-acquisition rapid-echo (RARE-VTR) T1-map pulse sequence with static TE (10 ms) and […]
parameters were as follows: field of view (FOV) = 25 x 25 mm2, matrix size (MTX) = 256 x 256, number of axial slices = 5, slice thickness (SI) = 1.0 mm, and averages (NEX) = 4. T1 analysis was carried out using the image sequence analysis tool in Paravision 5.0 pl2 software (Bruker, Billerica, MA, USA) with monoexponential curve-fitting of image intensities of selected regions of interest (ROIs) for each axial slice. […]
as §1
(D) GP2 measured at 7 T (E) 1 measured at 1.41 T (F) 1 measured at 7 T. All measurements were taken in PBS at 37 °C (G) 1 measured at 1.41 T with 5 mM GSH (H) GP1 measured at 1.41 T with 5 mM GSH and (I) GP2 measured at 1.41 T with 5 mM GSH.
as §2, §3

[5] = Aqueous solubility (qualitative); type: physicochemical; details: aqueous solutions / solvents
[6] = test system: HeLa cells; assay: Cell viability assay (CellTiter-Glo 2.0); type: cell-based
Description: (§4) To assess the cytotoxicity of GP1 and GP2in vitro, cell viability assays were performed to determine the IC50 concentrations in three cancer cell lines (A2780, HeLa, and MCF-7). Table 2 summarizes the IC50 concentrations of both agents compared to those of cisplatin and carboplatin. […] For all cell lines, GP1 was less toxic than cisplatin but followed the same trend of highest toxicity in A2780 cells and least toxic in MCF-7 cells. GP1 releases cisplatin intracellularly, therefore the apparent difference in toxicity of the two is likely due to decreased cell permeability of GP1 caused by the Gd(III) complex. However, because GP1 is inert in the extracellular matrix, higher doses can be safely administered to account for the decreased cell permeability. […]
(§5) lines were grown in a humidified incubator at 37 °C and 5% CO2 and were harvested using 0.25% TrypLE. Cells were grown for 24 hours after plating before each experiment. All solutions were filtered through […] sterile filters before use.
(§6) Viability Assays. A2780, HeLa, and MCF-7 cells were plated at a density of 3,000 cells per well (100 µL) in an opaque white 96-well plate. Cells were dosed with 100 µL of solutions of GP1, GP2, cisplatin, or carboplatin in MEM and incubated for 48 hours (GP1 or cisplatin) or 72 hours (GP2 or carboplatin). After incubation, 50 µL CellTiter-Glo 2.0 (Promega, Madison, WI) was added to each well and the assay was carried out following the manufacturer’s protocol.
(§7) Luminescence of the wells was measured using a Synergy H1 microplate reader (BioTek, Winooski, VT). Viability was determined by comparing luminescence readings of the cells treated with agent to untreated control cells. […]

[7] = test system: A2780 cells; assay: Cell viability assay (CellTiter-Glo 2.0); type: cell-based
Description: as §4, §5, §6, §7

[8] = test system: MCF-7 cells; assay: Cell viability assay (CellTiter-Glo 2.0); type: cell-based
Description: as §4, §5, §6, §7

[9] = test system: HeLa cells; assay: Concentration-dependent cell uptake, Gd and Pt by ICP-MS; type: cell-based; details: incubated near IC50 concentrations, 24 h
Description: (§8) Accumulation of GP1 and GP2 in cells was measured by concentration-dependent uptake experiments in A2780 and HeLa cells. Individual concentration-dependent uptake graphs are found in the ESI. ^†Table 3 compares the accumulation of Gd and Pt in A2780 and HeLa cells that were incubated with GP1, GP2, cisplatin, and carboplatin near their respective IC50 concentrations. For comparison, both cell lines were dosed with complex 1 at similar concentrations as GP1 and GP2. […] First, the accumulation of Gd in both cell lines for both agents is higher than what is typically considered the amount necessary for detection by MR (high μM concentrations).[32,33] […]
as §7
(§9) Aliquots of cell suspensions were mixed with the Guava ViaCount Reagent and allowed to stain for 5 minutes. The samples were vortexed for 20 seconds and cell count was determined via manual analysis using a Guava EasyCyte Mini PCA and ViaCount software. […] Performance of the instrument was assessed daily using Guava-Check Beads and the manufacturer’s protocol and Daily Check software.
(§10) Quantification of Gadolinium and Platinum with Inductively Coupled Plasma Mass Spectrometry. […]

[10] = test system: A2780 cells; assay: as above; type: cell-based; details: incubated near IC50 concentrations, 24 h
Description: as §8, §7, §9, §10

r1 with 5 mM GSH [2]: 4.4 mM⁻¹ s⁻¹ | r1 (T1 relaxivity) ([4]; 1.41 T): 4.1 mM⁻¹ s⁻¹ | r1 (T1 relaxivity) ([4]; 7 T): 4.7 mM⁻¹ s⁻¹
SMILES: O=C([O-])CN1CCN(CCCCCC(=O)O)CCN(CC(=O)[O-])CCN(CC(=O)[O-])CC1.[Gd+3] [Complex 1]
T1 of cell pellet [1]: 2178 ± 42 ms | Δ R1 (increase in R1 vs untreated control) [1]: 5.5% | T1 of cell pellet [3]: 2170 ± 34 ms | Δ R1 (increase in R1 vs untreated control) [3]: 6.8%

Solubility [5]: insoluble in most solvents
SMILES: [NH2][Pt]([NH2])([OH])([OH])([Cl])[Cl] [Complex 2]

SMILES: [NH2][Pt]1([NH2])([OH])([OH])[O]C(=O)C2(CCC2)C(=O)[O]1 [Complex 3]
Solubility [5]: insoluble in most solvents

SMILES: N.N.O=C([O-])C1(C(=O)[O-])CCC1.[Pt+2] [Carboplatin, carboplatin]
IC50 ([6]; 72 h incubation): 71.2 ± 4.9 µM | IC50 ([7]; A2780, 72 h incubation): 15.3 ± 5.8 µM | IC50 ([8]; MCF-7, 72 h incubation): 124 ± 4 µM | Cell accumulation of Pt [9]: 0.60 ± 0.11 fmol per cell | Cell accumulation of Pt [10]: 0.22 ± 0.02 fmol per cell

SMILES: N.N.[Cl][Pt][Cl] [Cisplatin, cisplatin]
T1 of cell pellet [1]: 2236 ± 19 ms | Δ R1 (increase in R1 vs untreated control) [1]: 2.7% | IC50 ([6]; 48 h incubation): 14.7 ± 1.2 µM | IC50 ([7]; A2780, 48 h incubation): 7.6 ± 2.3 µM | IC50 ([8]; MCF-7, 48 h incubation): 22.4 ± 2 µM | T1 of cell pellet [3]: 2216 ± 26 ms | Δ R1 (increase in R1 vs untreated control) [3]: 4.6%
